How the values were obtained:
[1] = test system: HL-60; test: Cytotoxicity against HL60 cells; type: functional, cell-based; conditions: Homo sapiens
[2] = test system: HCT-8; test: Cytotoxicity against HCT8 cells; type: functional, cell-based; conditions: Homo sapiens
[3] = test system: MDA-MB-435; test: Cytotoxicity against MDA-MB-435 cells; type: functional, cell-based; conditions: Homo sapiens
[4] = test system: SF-295; test: Cytotoxicity against SF295 cells; type: functional, cell-based; conditions: Homo sapiens
[5] = test system: Lytechinus variegatus; test: Antimitotic effect in Lytechinus variegatus at first cleavage stage at 10 ug/mL; type: functional
[6] = test system: Lytechinus variegatus; test: Antimitotic effect in Lytechinus variegatus at first cleavage stage at 100 ug/mL; type: functional
[7] = test system: Lytechinus variegatus; test: Antimitotic effect in Lytechinus variegatus at third cleavage stage at 10 ug/mL; type: functional
[8] = test system: Lytechinus variegatus; test: Antimitotic effect in Lytechinus variegatus at third cleavage stage at 100 ug/mL; type: functional
[9] = test system: Lytechinus variegatus; test: Antimitotic effect in Lytechinus variegatus at blastulae stage at 10 ug/mL; type: functional, Blastula stage
[10] = test system: Lytechinus variegatus; test: Antimitotic effect in Lytechinus variegatus at blastulae stage at 100 ug/mL; type: functional, Blastula stage

## C=CCc1ccc2c(c1)OCO2 [SAFROLE]
[1]
  IC50: 104 µM
[2]
  IC50: 36.1 µM
[3]
  IC50: 105 µM
[4]
  IC50: 32.6 µM
[5]
  Activity: 59.5%
[6]
  Activity: 0.7%
[7]
  Activity: 33.7%
[8]
  Activity: 0%
[9]
  Activity: 31.7%
[10]
  Activity: 0.3%

## CC(C)C[C@H](NC(=O)Cc1cc2c(cc1[N+](=O)[O-])OCO2)C(N)=O
[1]
  IC50: > 50 µM
[2]
  IC50: > 50 µM
[3]
  IC50: > 50 µM
[4]
  IC50: 19.1 µM
[5]
  Activity: 88.3%
[6]
  Activity: 94.3%
[7]
  Activity: 77%
[8]
  Activity: 72.7%
[9]
  Activity: 80.3%
[10]
  Activity: 89%

## CC[C@@H](C)[C@H](NC(=O)Cc1ccc2c(c1)OCO2)C(N)=O
[1]
  IC50: > 50 µM
[2]
  IC50: > 50 µM
[3]
  IC50: > 50 µM
[4]
  IC50: > 50 µM
[5]
  Activity: 89.3%
[6]
  Activity: 87.7%
[7]
  Activity: 62%
[8]
  Activity: 70.3%
[9]
  Activity: 94.7%
[10]
  Activity: 84.7%

## C[C@H](NC(=O)Cc1ccc2c(c1)OCO2)C(N)=O
[1]
  IC50: > 50 µM
[2]
  IC50: > 50 µM
[3]
  IC50: > 50 µM
[4]
  IC50: > 50 µM
[5]
  Activity: 76.3%
[6]
  Activity: 76.5%
[7]
  Activity: 68.3%
[8]
  Activity: 78.7%
[9]
  Activity: 92%
[10]
  Activity: 87.7%

## NC(=O)[C@H](Cc1ccccc1)NC(=O)Cc1cc2c(cc1[N+](=O)[O-])OCO2
[1]
  IC50: > 50 µM
[2]
  IC50: > 50 µM
[3]
  IC50: > 50 µM
[4]
  IC50: > 50 µM
[5]
  Activity: 86.3%
[6]
  Activity: 1.7%
[7]
  Activity: 73.3%
[8]
  Activity: 5.3%
[9]
  Activity: 92%
[10]
  Activity: 0%

## COc1cccc2c1C(=O)c1c(O)c3c(c(O)c1C2=O)C[C@@](O)(C(=O)CO)C[C@@H]3O[C@H]1C[C@H](N)[C@H](O)[C@H](C)O1 [DOXORUBICIN]
[2]
  IC50: 0.03 µM
[3]
  IC50: 0.83 µM
[4]
  IC50: 0.42 µM
[5]
  Activity: 36%
[6]
  Activity: 16.3%
[7]
  Activity: 0%
[8]
  Activity: 1.5%
[9]
  Activity: 0.3%
[10]
  Activity: 0%

## CC(C)(C)OC(=O)NCCCC[C@H](NC(=O)Cc1cc2c(cc1[N+](=O)[O-])OCO2)C(N)=O
[1]
  IC50: 5.4 µM
[2]
  IC50: > 50 µM
[3]
  IC50: 9.2 µM
[4]
  IC50: 31.6 µM
[5]
  Activity: 88.7%
[6]
  Activity: 88.7%
[7]
  Activity: 72.3%
[8]
  Activity: 66.3%
[9]
  Activity: 79.7%
[10]
  Activity: 3.7%

## NC(=O)[C@H](Cc1ccc(Oc2c(Cl)cccc2Cl)cc1)NC(=O)Cc1cc2c(cc1[N+](=O)[O-])OCO2
[1]
  IC50: > 50 µM
[2]
  IC50: 8.5 µM
[3]
  IC50: 9.9 µM
[4]
  IC50: > 50 µM
[5]
  Activity: 92.3%
[6]
  Activity: 85.3%
[7]
  Activity: 38%
[8]
  Activity: 46%
[9]
  Activity: 1.7%
[10]
  Activity: 15%

## CC(C)[C@H](NC(=O)Cc1ccc2c(c1)OCO2)C(N)=O
[1]
  IC50: > 50 µM
[2]
  IC50: > 50 µM
[3]
  IC50: > 50 µM
[4]
  IC50: > 50 µM
[5]
  Activity: 88%
[6]
  Activity: 70.7%
[7]
  Activity: 67%
[8]
  Activity: 61.7%
[9]
  Activity: 96.7%
[10]
  Activity: 1%

## CCOC(=O)CNC(=O)Cc1ccc2c(c1)OCO2
[1]
  IC50: 18.7 µM
[2]
  IC50: 4.3 µM
[3]
  IC50: > 50 µM
[4]
  IC50: 13.5 µM
[5]
  Activity: 83%
[6]
  Activity: 79.7%
[7]
  Activity: 71.3%
[8]
  Activity: 15.7%
[9]
  Activity: 83.7%
[10]
  Activity: 0.3%
